From patent publication US10683318B2, “Scalable synthesis of reduced toxicity derivative of amphotericin B” (priority 2014, dated 2020)
≈ marks a conversion by molar mass, not a printed value. Where two headings read alike, the source gives them in different places.

Columns and labels:
human red blood cells [1] = assay: Minimum hemolysis concentration (MHC) assay; conditions: concentration causing 90% hemolysis of human red blood cells, 37° C., 2 hours
Experimental: (§3) Whole human blood (sodium heparin) was purchased from Bioreclamation LLC (Westbury, N.Y.) and stored at 4° C. and used within two days of receipt. To a 2.0 mL Eppendorf tube, 1 mL of whole human blood was added and centrifuged at 10,000 g for 2 minutes. The supernatant was removed and the erythrocyte pellet was washed with 1 mL of sterile saline and centrifuged at 10,000 g for 2 minutes. The saline wash was repeated for a total of three washes. The erythrocyte pellet was suspended in 1 mL of RBC buffer (10 mM NaH2PO4, 150 mM NaCl, 1 mM MgCl2, pH 7.4) to form the erythrocyte stock suspension.
(§4) Compounds were prepared as 1.03 min (AmB) or 12.8 min (C2′epiAmB) stock solutions in DMSO and serially diluted to the following concentrations with DMSO: 7689, 5126, 2563, 2050, 1538, 1025, 769, 513, 384, 256, 205, 154, 103, 77, 51, 26 μM. […] Positive and negative controls were prepared by adding 1 μL of DMSO to MilliQ water or RBC buffer, respectively to 0.2 mL PCR tube. To each PCR tube, 0.63 μL of the erythrocyte stock suspension was added and mixed by inversion. The samples were incubated at 37° C. for 2 hours. The samples were mixed by inversion and centrifuged at 10,000 g for 2 minutes. […] Absorbances were read at 540 nm using a Biotek H1 Synergy Hybrid Reader (Winooski, Vt.). […]
(§5) Percent hemolysis was determined according to the following equation: […]

[2] = system: primary human renal proximal tubule epithelial cells; assay: WST-8 cell proliferation assay on primary RPTECs; format: cell-based; conditions: concentration causing 90% loss of cell viability of primary human RPTECs, 24 hours
Experimental: Primary human renal proximal tubule epithelial cells (RPTECs) were purchased from ATCC (Manassas, Va.) and immediately cultured upon receipt. Complete growth media was prepared using renal epithelial cell basal medium (ATCC, PCS-400-030), renal epithelial cell growth kit (ATCC, PCS-400-040), and penicillin-streptomycin (10 units/mL and 10 μg/mL). Complete media was stored at 4° C. in the dark and used within 28 days. Primary RPTECs were grown in CO2 incubator at 37° C. with an atmosphere of 95% air/5% CO2.
WST-8 cell proliferation assay kit (10010199) was purchased from Cayman Chemical Company (Ann Arbor, Mich.) and stored at −20° C. and used within 6 months of receipt. WST-8 reagent and electron mediator solution were thawed and mixed to prepare the WST-8 reagent solution. The solution was stored at −20° C. and used within one week.
A suspension of primary RPTECs in complete growth media was brought to a concentration of 1×10^5 cells/mL. A 96-well plate was seeded with 99 μL of the cell suspension and incubated at 37° C. with an atmosphere of 95% air/5% CO2 for 3 hours. Positive and negative controls were prepared by seeding with 100 μL of the cell suspension or 100 μL of the complete media. […] Following incubation, the 96-well plate was mixed in a shaking incubator at 200 rpm for 1 minute and absorbances were read at 450 nm using a Biotek H1 Synergy Hybrid Reader (Winooski, Vt.). […]

healthy mice = assay: Acute toxicity, single intravenous administration to healthy mice; format: in vivo; conditions: single i.v.
Experimental: In a separate experiment, acute toxicity was determined by single intravenous administration of AmB or C2′epiAmB to healthy mice, followed by monitoring for lethality.

[3] = Isothermal titration calorimetry with POPC LUVs containing 10% ergosterol; format: binding; conditions: ITC; for Ergosterol binding (net exotherm vs sterol-free LUVs): result in words
Experimental: (§1) In an optimized isothermal titration calorimetry (ITC)-based assay, an aqueous solution of AmB was titrated with a suspension of large unilamellar vesicles (LUVs) comprised of only 1-palmitoyl-2-oleoyl-sn-glycero-3-phosphocholine (POPC), and the net exotherm was recorded. The titration was repeated using POPC LUVs containing 10% ergosterol. […] The titration was repeated using C2′epiAmB. […] The ITC assay was also conducted with cholesterol in place of ergosterol.
(§2) Experiments were performed using a NanoITC isothermal titration calorimeter (TA Instruments, Wilmington, Del.). Solutions of the compounds to be tested were prepared by diluting a 60.0 mM stock solution of the compound in DMSO to 600 μM with K buffer (5.0 mM HEPES/KHEPES, pH=7.4). The final DMSO concentration in the solution was 1% v/v. Large unilamellar vesicles comprised of only 1-palmitoyl-2-oleoyl-sn-glycero-3-phosphocholine (POPC LUVs) were prepared and phosphorus and ergosterol content was quantified as described below. The LUV solutions were diluted with buffer and DMSO to give a final phospholipid concentration of 12.0 mM in a 1% DMSO/K buffer solution. Immediately prior to use, all solutions were incubated at 37° C. for 30 minutes and degassed under vacuum at 37° C. for 10 minutes. The reference cell of the instrument (volume=0.190 mL) was filled with a solution of 1% v/v DMSO/K buffer.
Palmitoyl oleoyl phosphatidylcholine (POPC) was obtained as a 20 mg/mL solution in CHCl3 from Avanti Polar Lipids (Alabaster, Ala.) and was stored at −20° C. under an atmosphere of dry argon and used within 1 month. A 4 mg/mL solution of ergosterol in CHCl3 was prepared monthly and stored at 4° C. under an atmosphere of dry argon. Prior to preparing a lipid film, the solutions were warmed to ambient temperature to prevent condensation from contaminating the solutions. A 13×100 mm test tube was charged with 800 μL POPC and 230 μL of the ergosterol solution. For cholesterol-containing liposomes, a 13×100 mm test tube was charged with 800 μL POPC and 224 μL of the […] solution. […]

C. albicans [4] = assay: Mouse model of disseminated candidiasis; format: in vivo; conditions: neutropenic mice, single i.p. 16 mg/kg 2 hours post infection, kidneys at 24 hours post infection
Experimental: The antifungal efficacy of C2′epiAmB was tested in a mouse model of disseminated candidiasis. In this experiment neutropenic mice were infected with C. albicans via their tail veins, and then 2 hours post infection the mice were treated with a single intraperitoneal injection of 16 mg/kg AmB or C2′epiAmB. Then at 24 hours post infection the mice were sacrificed, and the fungal burden present in their kidneys was quantified.

[5] = Isothermal titration calorimetry with sterol-free POPC LUVs; format: binding; conditions: ITC, no sterol (POPC LUVs), 600 μM compound, 25° C.
Experimental: as §1
as §2, with “buffer. […]” for “buffer.”

S. cerevisiae = assay: Broth microdilution MIC assay, S. cerevisiae; format: cell-based; conditions: Saccharomyces cerevisiae, 30° C., 24 hours, no visible growth
Experimental: Liquid cultures were incubated at 30° C. on a rotary shaker and solid cultures were maintained at 30° C. in an incubator.
(§6) The protocol for the broth microdilution assay was adapted from the Clinical and Laboratory Standards Institute document M27-A2. […] 50 mL of YPD media was inoculated and incubated overnight at either 30° C. (S. cerevisiae) or 37° C. (C. albicans) in a shaker incubator. The cell suspension was then diluted with YPD to an OD600 of 0.10 (˜5×10^5 cfu/mL) as measured by a Shimadzu (Kyoto, Japan) PharmaSpec UV-1700 UV/Vis spectrophotometer. The solution was diluted 10-fold with YPD, and 195 μL aliquots of the dilute cell suspension were added to sterile Falcon (Franklin Lakes, N.J.) Microtest 96-well plates in triplicate. Compounds may be prepared as 400 μM stock solutions in DMSO and serially diluted to the following concentrations with DMSO: 1600, 1200, 800, 400, 320, 240, 200, 160, 120, 80, 40, 20, 10 and 5 μM. 5 μL aliquots of each solution were added to the 96-well plate in triplicate, with each column representing a different concentration of the test compound. […] This 40-fold dilution gave the following final concentrations: 50, 40, 30, 20, 10, 8, 6, 4, 1, 0.5, 0.25 and 0.125 μM. The plates were covered and incubated at 30° C. (S. cerevisiae) or 37° C. (C. albicans) for 24 hours prior to analysis. […]

[6] = Isothermal titration calorimetry with POPC LUVs containing 10% cholesterol; format: binding; conditions: ITC
Experimental: as §1
as §2, with “buffer. […]” for “buffer.”

C. albicans [7] = assay: Broth microdilution MIC assay, C. albicans; format: cell-based; conditions: Candida albicans, 37° C., 24 hours, no visible growth
Experimental: C. albicans was cultured in a similar manner to S. cerevisiae except both liquid and solid cultures were incubated at 37° C.
as §6

human red blood cells [8] = conditions: 2 h, pH 7.4
Experimental: as §3, §4, §5

| SMILES | minimum hemolytic concentration (MHC) (human red blood cells [1]) | minimum toxic concentration (MTC) [2] | Lethality (healthy mice; 4 mg/kg) | Ergosterol binding (net exotherm vs sterol-free LUVs) [3] | Reduction of fungal burden relative to AmB (C. albicans [4]) | Reduction of fungal burden in kidneys compared with AmB (C. albicans [4]; result in words) | Total exotherm [5] | MIC (S. cerevisiae) | Total exotherm ([6]; POPC LUVs with 10% cholesterol, 600 μM compound, 25° C.) | Cholesterol binding ([6]; result in words) | Lethality (healthy mice; up to 16 mg/kg) | MIC (C. albicans [7]) | Total exotherm ([3]; POPC LUVs with 10% ergosterol, 600 μM compound, 25° C.) | minimum hemolytic concentration (MHC) (human red blood cells [8]) |
| --- | --- | --- | --- | --- | --- | --- | --- | --- | --- | --- | --- | --- | --- | --- |
| C[C@@H]1[C@H](O)[C@@H](C)/C=C/C=C/C=C/C=C/C=C/C=C/C=C/[C@H](O[C@@H]2O[C@H](C)[C@@H](O)[C@H](N)[C@@H]2O)C[C@@H]2O[C@](O)(C[C@@H](O)C[C@@H](O)[C@H](O)CC[C@@H](O)C[C@@H](O)CC(=O)O[C@H]1C)C[C@H](O)[C@H]2C(=O)O [AmB, amphotericin B] | 8.5 µM | 2.4 µM | died within seconds | significant increase in net exotherm |  |  |  |  |  |  |  |  |  |  |
| C[C@@H]1[C@H](O)[C@@H](C)/C=C/C=C/C=C/C=C/C=C/C=C/C=C/[C@H](O[C@@H]2O[C@H](C)[C@@H](O)[C@H](N)[C@H]2O)C[C@@H]2O[C@](O)(C[C@@H](O)C[C@@H](O)[C@H](O)CC[C@@H](O)C[C@@H](O)CC(=O)O[C@H]1C)C[C@H](O)[C@H]2C(=O)O [C2′epiAmB] |  | no evidence of toxicity up to the limits of solubility |  | binds to ergosterol | 0.5 log units | more effective than AmB | -6.70 ± 0.11 µcal | 2 µM (≈ 1.85 µg/mL) | -6.43 ± 2.80 µcal | not found to bind to cholesterol | no deaths observed | 2 µM (≈ 1.85 µg/mL) | -15.24 ± 1.66 µcal | > 500 µM |
